Assay results from patent US20250324955A1, “ZEBRAFISH MODEL OF HUMAN ACUTE MYELOID LEUKEMIA AND METHOD OF USE THEREOF” (Versitech Limited, priority 2022, published 2025).

Columns and labels:
[1] = test system: Tg(Runx1:FLT3^ITDIDH2^R172K) and Tg(Runx1:FLT3^ITDIDH2^R140Q) embryos; assay: Drug treatment of double transgenic embryos, SBB staining as surrogate for embryonic myelopoiesis; format: in vivo, zebrafish; details: drugs at 0.01 μM, 0.1 μM and 1 μM from 6 hpf, stained at 4 dpf
Description: (§1) Drugs at three concentrations (0.01 μM, 0.1 μM and 1 μM) were added to the embryos in E3 medium with (1-phenyl-2-thiourea) PTU at 6 hpf, and the medium was changed every 24 hours. At 4 dpf, embryos were collected and fixed in 4% PFA for SSB staining. […] Adult zebrafish were anesthetized using 0.015% Tricaine. […] Treated zebrafish were then placed into an individual recovery tank with fresh sterile fish water immediately after the gavage procedure. The drug regimen was repeated daily for 14 days.

[2] = test system: wildtype zebrafish; assay: Initial dose-finding study in adult fish, daily oral gavage, survival; format: in vivo; details: daily gavage of quizartinib at 10 mg/kg, enasidenib at 100 mg/kg, 14 days
Description: as §1, with “days. The gavage apparatus was consisted of a 10 μl microliter syringe (Gaoge, Shanghai, China) and a polyethylene tubing (BTPE-50, INTECH, USA), and was adapted from Collymore et al., 2013 and Dang, Michelle, et al., 2016.” for “days.”

[3] = test system: FLT3^ITD and IDH2 double mutant zebrafish; assay: 14-day oral gavage treatment of adult double transgenic leukemic fish, kidney marrow analysis; format: in vivo; details: daily oral gavage 14 days, quizartinib 10 mg/kg, enasidenib 100 mg/kg
Description: (§2) Zebrafish WKM were harvested from two to twelve months old transgenic or wildtype TU fish. The collected KM was dissociated in 0.9×PBS with 5% fetal bovine serum (FBS) by pipetting and filtered through a 40 μm nylon cell strainer (Corning, NY, USA). The cells were then centrifuged at 500 g for 5 minutes, resuspended, filtered, and washed with 0.9×PBS with 5% (FBS) at least twice. Flow cytometry of the KM was performed using a MoFlo XDP flow cytometer (Beckman coulter). The data was analyzed using FlowJo™ v10.6.1 software. Cytospin preparations were made with 2×10^5 to 3×10^5 cells cytocentrifuged at 400 rpm for 5 minutes onto microscope glass slides (Thermo scientific). The glass slides were dried at room temperature for more than 12 hours, stained with Wright-Giemsa stain, and imaged with Nikon DS-Ri2 digital camera fitted to a Nikon Eclipse Ni-U microscope.
as §1

[4] = test system: Tg(Runx1:FLT3^ITDIDH2^R140Q) zebrafish; assay: 14-day oral gavage treatment of adult Tg(Runx1:FLT3^ITDIDH2^R140Q) fish; format: in vivo; details: adult Tg(Runx1:FLT3^ITD IDH2^R140Q) double mutant; treatment with Quizartinib and/or Enasidenib, 14 days
Description: as §2, §1

[5] = test system: Tg(Runx1:FLT3^ITDIDH2^R172K) zebrafish; assay: 14-day oral gavage treatment of adult Tg(Runx1:FLT3^ITDIDH2^R172K) fish; format: in vivo; details: adult Tg(Runx1:FLT3^ITDIDH2^R172K) double mutants; treatment with Quizartinib and/or Enasidenib, 14 days
Description: as §2, §1

Compound	embryonic myelopoiesis (cytochemical staining with SBB) [1]	fish survival [2]	blast counts in KM ([3]; alone or combined)	erythroid cells in KM / erythropoiesis ([3]; alone or combined)	neutrophils in KM ([3]; alone or combined)	cellularity in KM ([3]; monotherapy)	spleen size [4]	spleen size [5]
CC(C)(O)CNc1nc(Nc2ccnc(C(F)(F)F)c2)nc(-c2cccc(C(F)(F)F)n2)n1 [enasidenib, Enasidenib]	ameliorated the increase in myelopoiesis	compatible with normal fish survival	reduced blast counts in KM	significant increase in neutrophils and erythroid	significant increase in neutrophils	but not enasidenib monotherapy significantly reduced cellularity	no changes were observed in spleen size	decreased spleen sizes
CC(C)(C)c1cc(NC(=O)Nc2ccc(-c3cn4c(n3)sc3cc(OCCN5CCOCC5)ccc34)cc2)no1 [quizartinib, Quizartinib]	–	compatible with normal fish survival	–	–	–	–	–	–
